{
  "source": "ChEMBL document CHEMBL5550122",
  "about": "“Photodynamic anticancer activity evaluation of novel 5-aminolevulinic acid and 3-hydroxypyridinone conjugates” (Bioorg Med Chem, 2024)",
  "key": {"[1]": {"tested_on": "HeLa", "test": "Cytotoxicity against human HeLa cells assessed as reduction in cell viability at 100 uM incubated for 4 hrs under dark condition by MTT assay", "format": "functional, cell-based"}, "[2]": {"test": "(§1) Prodrug release in human Hela cells assessed as 3-[(1Z,4Z,9Z,15Z)-7-(2-carboxyethyl)-3,8,12,17-tetramethyl-13,18-divinyl-21,23-dihydroporphyrin-2-yl]propanoic acid release by measuring fold increase in fluorescence intensity at 20 to 80 uM by microplate reader analysis relative to 5-Aminolevulinic acid", "format": "ADME, cell-based", "conditions": "dose 20-80 µM"}, "[3]": {"test": "Drug metabolism assessed as esterase (unknown origin) mediated hydrolysis by measuring hydroxypyridinone formation", "format": "ADME", "conditions": "human"}, "[4]": {"test": "Prodrug release in human MCF7 cells assessed as 3-[(1Z,4Z,9Z,15Z)-7-(2-carboxyethyl)-3,8,12,17-tetramethyl-13,18-divinyl-21,23-dihydroporphyrin-2-yl]propanoic acid release by measuring increase in fluorescence intensity at 20 to 80 uM by microplate reader analysis", "format": "ADME, cell-based", "conditions": "mcf7, 80 µM, dose 20-80 µM"}, "[5]": {"tested_on": "MCF7", "test": "Cytotoxicity against human MCF7 cells assessed as reduction in cell viability preincubated for 4 hrs under dark condition followed by irradiation with blue light at 2.5 J.cm^-2 energy level for 5 mins and measured after 18 hrs by MTT assay", "format": "functional, cell-based", "conditions": "MCF7, light or radiation study"}, "[6]": {"test": "as §1, with “A-375” for “Hela”", "format": "ADME, cell-based", "conditions": "a-375, 80 µM, dose 20-80 µM"}, "[7]": {"tested_on": "HeLa", "test": "Cytotoxicity against human HeLa cells assessed as reduction in cell viability preincubated for 4 hrs under dark condition followed by irradiation with blue light at 2.5 J.cm^-2 energy level for 5 mins and measured after 18 hrs by MTT assay", "format": "functional, cell-based", "conditions": "light or radiation study"}, "[8]": {"test": "Drug metabolism assessed as esterase (unknown origin) mediated hydrolysis by measuring 5-Aminolevulinic acid formation", "format": "ADME", "conditions": "human"}, "[9]": {"tested_on": "A-375", "test": "Cytotoxicity against human A-375 cells assessed as reduction in cell viability at 100 uM incubated for 4 hrs under dark condition by MTT assay", "format": "functional, cell-based"}, "[10]": {"test": "Prodrug release in human A-375 cells assessed as 3-[(1Z,4Z,9Z,15Z)-7-(2-carboxyethyl)-3,8,12,17-tetramethyl-13,18-divinyl-21,23-dihydroporphyrin-2-yl]propanoic acid release by measuring increase in fluorescence intensity at 20 to 80 uM by microplate reader analysis", "format": "ADME, cell-based", "conditions": "a-375, 80 µM, dose 20-80 µM"}, "[11]": {"test": "as §1, with “MCF7” for “Hela”", "format": "ADME, cell-based", "conditions": "mcf7, 80 µM, dose 20-80 µM"}, "[12]": {"tested_on": "A-375", "test": "Cytotoxicity against human A-375 cells assessed as reduction in cell viability preincubated for 4 hrs under dark condition followed by irradiation with blue light at 2.5 J.cm^-2 energy level for 5 mins and measured after 18 hrs by MTT assay", "format": "functional, cell-based", "conditions": "A-375, light or radiation study"}, "[13]": {"test": "Prodrug release in human Hela cells assessed as 3-[(1Z,4Z,9Z,15Z)-7-(2-carboxyethyl)-3,8,12,17-tetramethyl-13,18-divinyl-21,23-dihydroporphyrin-2-yl]propanoic acid release by measuring increase in fluorescence intensity at 20 to 80 uM by microplate reader analysis", "format": "ADME, cell-based", "conditions": "dose 20-80 µM"}, "[14]": {"tested_on": "MCF7", "test": "Cytotoxicity against human MCF7 cells assessed as reduction in cell viability at 100 uM incubated for 4 hrs under dark condition by MTT assay", "format": "functional, cell-based"}},
  "note": "Calls of active or inactive are those of the source. No cut-off for these calls is given here.",
  "data": [
    {"smiles": "CCCCCCn1c(C)cc(=O)c(O)c1COC(=O)CCC(=O)CN.Cl", "values": [
      {"measurement": "Activity", "setting": "[1]", "value": "inactive"},
      {"measurement": "fold change (FC)", "setting": "[2]", "value": 18.9},
      {"measurement": "Drug metabolism", "setting": "[3]", "value": "Metabolite_Detected"},
      {"measurement": "Drug metabolism", "setting": "[4]", "value": "Metabolite_Detected"},
      {"measurement": "IC50", "setting": "[5]", "value": 43.3, "unit": "µM"},
      {"measurement": "fold change (FC)", "setting": "[6]", "value": 2.8},
      {"measurement": "IC50", "setting": "[7]", "value": 24.2, "unit": "µM"},
      {"measurement": "Drug metabolism", "setting": "[8]", "value": "Metabolite_Detected"},
      {"measurement": "Activity", "setting": "[9]", "value": "inactive"},
      {"measurement": "Drug metabolism", "setting": "[10]", "value": "Metabolite_Detected"},
      {"measurement": "fold change (FC)", "setting": "[11]", "value": 5.3},
      {"measurement": "IC50", "setting": "[12]", "value": 28, "unit": "µM"},
      {"measurement": "Drug metabolism", "setting": "[13]", "value": "Metabolite_Detected"},
      {"measurement": "Activity", "setting": "[14]", "value": "inactive"}
    ]}
  ]
}
